# Data as given in patent US20200281928A1, “VITAMIN B1 IN HIGH DOSES FOR USE IN THE MEDICAL TREATMENT OF MOTOR SYMPTOMS OF SOME SPORADIC NEURODEGENERATIVE DISEASES, OF GENETIC ORIGIN, AND OF CLUSTER HEADACHE AND OF MIGRAINE HEADACHE” (priority 2017, published 2020).
# Where two headings read alike, the source gives them in different places.
# Columns and labels:
# [1] = tested on: Essential Tremor (also called intention tremor); conditions: for improvement of TETRAS ADL Subscale / improvement of TETRAS Performance subscale / TETRAS ADL Subscale score after treatment / TETRAS Performance subscale score after treatment: two 100-mg/ml vials intramuscularly per week, two months; for TETRAS ADL Subscale score after treatment: scale 0-48; for TETRAS Performance subscale score after treatment: scale 0-64
# Protocol: Two patients were studied affected by such pathology, a person and a person. The intention tremor, differently from tremor in Parkinson disease appears and increases with muscular activity. The diagnosis was made by neurologists expert in the motion disorders based upon the clinical, neuroradiological and electrophysiological data.
# Before starting the treatment, both patients were evaluated with a validated scale called TETRAS (TRG ESSENTIAL TREMOR RATING ASSESSMENT SCALE). They were re-evaluated with the same scale after two months of treatment with two 100-mg/ml vials of thiamine (vitamin B1) intramuscularly performed on Monday and on Thursday morning with the same scale.
# In turn, this scale is constituted by two sub-scales. The first one, Activities of Daily Living Subscale (ADL Subscale) measures the impact the tremor has in the activities of daily life and it has a score ranging from 0 (no impact) to 48 (maximum impact).
# The second one, Performance Subscale measures the width and the extension of tremor on the body and it has a score ranging from 0 (no tremor) to 64 (tremor with wide shocks and widespread).
# [2] = tested on: Multisystemic Atrophy (MSA) Type Parkinson (Type P); conditions: for Improvement of motor symptoms: UPDRS portion III, two months of therapy; for UPDRS portion III after therapy: five 100 mg/ml vials intramuscularly per week plus low doses of other group b vitamins and magnesium, two months, scale 0-56
# Protocol: (§1) We treated four patients affected by such pathology, two women and two men with five vials intramuscularly per week of vitamin B1. One vial included 100 mg/ml of thiamine. The injection was performed each morning for the first five days of the week. The dose was determined empirically based upon the disease progression rapidity.
# (§2) Moreover, low doses of all other vitamins of group b, including folic acid, 150 mg of magnesium citrate and 150 mg of magnesium malate, were associated to the treatment.
# The patients were evaluated with UPDRS (Unified Parkinson's Disease Rating Scale), scale validated for all Parkinson forms.
# (§3) The diagnoses were made by Italian primary neurological centres based upon anamnestic, clinical, evolutionary, neuroradiological and neurophysiological data.
# [3] = tested on: Cortico-Basal Degeneration; conditions: for Improvement of motor symptoms: UPDRS portion III, two months of therapy; for UPDRS portion III after therapy: three 100 mg/ml vials intramuscularly per week plus low doses of other group b vitamins and magnesium, two months, scale 0-56
# Protocol: We treated two patients affected by such pathology, two men with three vials intramuscularly per week of vitamin B1. One vial included 100 mg/ml of thiamine. The injection was performed in the three odd or even midweek days. The dose was determined empirically based upon the disease progression rapidity.
# Furthermore low doses of all other vitamins of the group b, including folic acid, 150 mg of magnesium citrate and 150 mg of magnesium malate, were associated to the treatment.
# The patients were evaluated with UPDRS (Unified Parkinson's Disease Rating Scale), scale validated for all Parkinson forms. Herein the scores of third portion (portion III) of this scale will be shown, illustrating the motor problems found by the examiner. […] Both of them were evaluated before starting the treatment and two months after the treatment beginning.
# as §3
# [4] = tested on: Progressive Supranuclear Paralysis; conditions: for Improvement of motor symptoms: UPDRS portion III, two months of therapy; for UPDRS portion III after therapy: five 100 mg/ml vials intramuscularly per week plus low doses of other group b vitamins and magnesium, two months, scale 0-56
# Protocol: We treated […] affected by such pathology, two women and two men with five vials intramuscularly per week of vitamin B1. A vial included 100 mg/ml of thiamine. The injection was performed each morning for the first five days of the week. The dose was determined empirically based upon the disease progression rapidity. Furthermore, low doses of all other vitamins of the group b, including folic acid, 150 mg of magnesium citrate and 150 mg of magnesium malate, were associated to the treatment. The patients were evaluated with UPDRS (Unified Parkinson's Disease Rating Scale), scale validated for all Parkinson forms. Herein the scores of third portion (portion III) of this scale will be shown, illustrating the motor problems found by the examiner.
# as §3
# [5] = tested on: Multisystemic Atrophy (MSA) of Cerebellar Type (Type C); conditions: for Improvement of motor symptoms: SARA, two months of therapy; for SARA scale after therapy: five 100 mg/ml vials intramuscularly per week plus low doses of other group b vitamins and magnesium, two months, scale 0-40
# Protocol: as §1, with “three” for “four”, “pathology” for “pathology, two women and two men”, “A” for “One”, “every” for “each”
# as §2
# The patients were evaluated with SARA (Scale for Assessment and Rating of Ataxia), scale validated for all disorders of cerebellar type. The score of this scale ranges 0 (absence of symptoms) to 40 (maximum deficit).
# as §3
# Migraine Headache = conditions: for MIDAS after treatment: after 30 days, scale 0-25
# Protocol: Migraine headache is the headache form characterized by a recurrent pain involving one only side of the head. The pulsating headache can last from four hours until three days and it is accompanied by nausea, vomiting, photophobia. The causes are poorly known. We studied two female patients starting from January 2017.
# The patients were evaluated with Migraine Disability Assessment Test (MIDAS) evaluation scale before starting the treatment and every 30 days after starting the treatment, which started in January 2017. The score of this scale ranges from 0 (absence of symptoms) to 25 (maximum disability, maximum negative influence in the daily life activities).
# The thiamine dose was 300 mg orally each morning.
# The thiamine dose was 500 mg every morning orally.
structure (smiles),measurement,setting,value
"Cc1ncc(C[n+]2csc(CCO)c2C)c(N)n1 [vitamin B1, thiamine]",improvement of TETRAS ADL Subscale,[1]; patient N1,75%
same,improvement of TETRAS Performance subscale,[1]; patient N1,74.4%
same,TETRAS ADL Subscale score after treatment,"[1]; patient N1, before treatment 16",4 scores
same,TETRAS Performance subscale score after treatment,"[1]; patient N1, before treatment 19.5",5 scores
same,improvement of TETRAS ADL Subscale,[1]; patient N2,65.3%
same,improvement of TETRAS Performance subscale,[1]; patient N2,68.2%
same,TETRAS Performance subscale score after treatment,"[1]; patient N2, before treatment 22",7 scores
same,TETRAS ADL Subscale score after treatment,"[1]; patient N2, before treatment 23",8 scores
same,alteration in the common laboratory examinations,"[1]; two Essential Tremor patients, long-term treatment never suspended",nor any alteration in the common laboratory examinations
same,side effects,"[1]; two Essential Tremor patients, long-term treatment never suspended (intramuscular vials or 4 grams each day orally)",no any side effect
same,result with the equivalent dose orally,"[1]; two Essential Tremor patients, 4 grams each day of vitamin B1 orally for some months instead of the vials",keeping the same results of the vials
same,Improvement of motor symptoms,[2]; patient N1 (person eleven),30.8%
same,UPDRS portion III after therapy,"[2]; patient N1 (person eleven), before therapy 26",18 scores
same,Improvement of motor symptoms,[2]; patient N2 (person ten),11.8%
same,UPDRS portion III after therapy,"[2]; patient N2 (person ten), before therapy 34",30 scores
same,Improvement of motor symptoms,[2]; patient N3 (person three),55.5%
same,UPDRS portion III after therapy,"[2]; patient N3 (person three), before therapy 9",5 scores
same,Improvement of motor symptoms,[2]; patient N4,47.6%
same,UPDRS portion III after therapy,"[2]; patient N4, before therapy 21",10 scores
same,Improvement of motor symptoms,[3]; patient N1 (person five),57.6%
same,UPDRS portion III after therapy,"[3]; patient N1 (person five), before therapy 26",15 scores
same,Improvement of motor symptoms,[3]; patient N2 (person six),15.3%
same,UPDRS portion III after therapy,"[3]; patient N2 (person six), before therapy 35",31 scores
same,Improvement of motor symptoms,[4]; patient N1 (person two),20.3%
same,UPDRS portion III after therapy,"[4]; patient N1 (person two), before therapy 31",25 scores
same,Improvement of motor symptoms,[4]; patient N2 (person seven),19.9%
same,UPDRS portion III after therapy,"[4]; patient N2 (person seven), before therapy 37",30 scores
same,Improvement of motor symptoms,[4]; patient N3 (person twelve),32.5%
same,UPDRS portion III after therapy,"[4]; patient N3 (person twelve), before therapy 23",16 scores
same,Improvement of motor symptoms,[4]; patient N4,21.8%
same,UPDRS portion III after therapy,"[4]; patient N4, before therapy 28",22 scores
same,Improvement of motor symptoms,[4]; patient N5,26.6%
same,UPDRS portion III after therapy,"[4]; patient N5, before therapy 28",20 scores
same,Improvement of motor symptoms,[5]; patient N1 (person one),14.3%
same,SARA scale after therapy,"[5]; patient N1 (person one), before therapy 7",6 scores
same,Improvement of motor symptoms,[5]; patient N2 (person eight),37.5%
same,SARA scale after therapy,"[5]; patient N2 (person eight), before therapy 8",3 scores
same,Improvement of motor symptoms,[5]; patient N3,16.0%
same,SARA scale after therapy,"[5]; patient N3, before therapy 25",21 scores
same,days of treatment after which the regression of the episodes was already present,"Migraine Headache; migraine patients on oral thiamine, maintained by continuing the same treatment",7 days
same,MIDAS after treatment,"Migraine Headache; patient N1, 300 mg orally each morning, before treatment 19",0 scores
same,MIDAS after treatment,"Migraine Headache; patient N2 (person ten), 500 mg every morning orally, before treatment 20",0 scores
